Experimental data: patent US8802411B2, “ADP detection based luminescent phosphotransferase or ATP hydrolase assay” (Promega Corporation, priority 2008, dated 2014)

What was measured:
[1] = target: T1, pyruvate kinase (Oryctolagus cuniculus, UniProt P11974); experiment: ADP to ATP conversion by pyruvate kinase (ADP detection assay); format: biochemical, rabbit
T1 construct: Pyruvate kinase from rabbit muscle (Sigma Catalog number P9136); purchased Sigma P9136; host or cells: rabbit muscle
Protocol: Pyruvate kinase from rabbit muscle (Sigma Catalog number P9136), myokinase from chicken muscle (Sigma Catalog number M5520), myokinase from rabbit muscle (Sigma Catalog number M3003), creatine phosphokinase from bovine heart (Sigma Catalog number C7886), creatine phosphokinase from rabbit brain (Sigma Catalog number C6638), and creatine phosphokinase from rabbit muscle (Sigma Catalog number C3755) were obtained from Sigma.
80 μL of Reagent 2 (800 μM phosphoenolpyruvate and 800 mU pyruvate kinase in 80 μL Kinase-Glo® Max (Promega Corp.)) were added simultaneously to the kinase or ATPase reaction and incubated for 30-60 minutes at room temperature. The data were collected using a plate reading luminometer (GloMax® 96 Microplate Luminometer).
When the assay was performed in 3 steps, the following modification was introduced. After the ATP depletion step, 20 μL of pyruvate kinase (PK) reagent (40 mM Tris pH 7.0, 335 mM KCl, 500 μM calmidazolium, 500 μM phosphoenolpyruvate, 15 mM EDTA, 0.3 mg/mL BSA and 300-600 mU pyruvate kinase) was added, the reaction incubated for 5-10 minutes, and 100 μL Kinase-Glo® Max (Promega Corp.) was added to detect the ATP produced. After a 10 minute incubation, the plate was read on a plate reading luminometer (GloMax 96 Microplate Luminometer; Promega Corp.).

[2] = tested on: adenylate cyclase (AC); experiment: Adenylate cyclase assay and inhibition; format: biochemical; conditions: for use as inhibitors of adenylate cyclase: calmodulin antagonists, when converting ADP to ATP, FIG. 5
Protocol: Activity of various adenylyl cyclases (ACs) was measured at 30° C. for 30 minutes in the presence of 60 mM Tris pH 7.5, 10 mM MgCl2, 40 nM calmodulin and variable ATP concentrations. Except for those experiments related to AC titration, 100 ng of the AC was used. When used, the calmodulin antagonists were prepared according to the manufacturer's recommendation and were added directly to the AC reaction when direct inhibition was assessed or to the reaction converting ADP to ATP to assess AC inhibition during ATP formation.

T1 sequence (P11974 whole entry): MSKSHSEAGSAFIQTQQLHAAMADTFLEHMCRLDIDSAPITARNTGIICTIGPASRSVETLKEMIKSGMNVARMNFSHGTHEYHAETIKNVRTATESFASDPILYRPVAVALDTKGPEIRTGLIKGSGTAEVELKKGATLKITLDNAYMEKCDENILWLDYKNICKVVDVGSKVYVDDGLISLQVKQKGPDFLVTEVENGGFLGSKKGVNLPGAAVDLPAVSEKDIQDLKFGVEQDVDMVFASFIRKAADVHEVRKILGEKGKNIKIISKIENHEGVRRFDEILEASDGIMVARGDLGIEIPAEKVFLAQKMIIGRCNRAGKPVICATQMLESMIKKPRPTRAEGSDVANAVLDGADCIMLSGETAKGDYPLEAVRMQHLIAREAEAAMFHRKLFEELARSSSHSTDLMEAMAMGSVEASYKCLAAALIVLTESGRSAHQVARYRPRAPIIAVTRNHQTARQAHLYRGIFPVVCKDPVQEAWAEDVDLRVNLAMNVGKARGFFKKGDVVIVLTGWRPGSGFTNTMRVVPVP

CN[C@@H]1C[C@H]2O[C@@](C)([C@@H]1OC)n1c3ccccc3c3c4c(c5c6ccccc6n2c5c31)C(=O)NC4 [staurosporine]
interference with the pyruvate kinase reaction ([1]; inhibitor used to stop or tested in PKA kinase reaction, FIG. 13): did not interfere significantly

Clc1ccc(C(c2ccc(Cl)cc2)n2cc[n+](CC(OCc3ccc(Cl)cc3Cl)c3ccc(Cl)cc3Cl)c2)cc1 (centres unmarked) [calmidazolium]
inhibition of AC ([2]; FIG. 6): inhibited | use as inhibitors of adenylate cyclase [2]: may be used as inhibitors of adenylate cyclase | interference with pyruvate kinase conversion of ADP to ATP ([1]; even at high calmidozolium concentrations, FIG. 6): without any significant interference

CN1CCN(CCCN2c3ccccc3Sc3ccc(C(F)(F)F)cc32)CC1 [trifluoroperazine]
use as inhibitors of adenylate cyclase [2]: may be used as inhibitors of adenylate cyclase
